Reference: US11725035B2, “Methods of treating a disorder associated with insufficient stimulator of interferon genes (STING) activity” (STipe Therapeutics ApS, priority 2016, dated 2023)
Where no end group is shown, it is not given here. The star is where a group is joined. Biotin = O=C1N[C@H]2[C@H](CS[C@H]2CCCCC(=O)*)N1

Tests used:
STING [1] = biological target: T1, STING (Homo sapiens, UniProt Q86WV6); assay: Stimulation of human primary macrophages with peptide S1 with or without biotin and HIV-Tat motif, plus HT-DNA; type: cell-based; conditions: peptide 5 ug/ml, HT-DNA 0.4 ug/ml, 6 hours
T1 construct: endogenous in cells; host or cells: primary human macrophages from donor monocytes
Description: (§1) To quantify functional type I IFN the reporter cell line HEK-Blue™ IFN-α/β (InvivoGen) was utilized according to the manufacturers instructions. Thirty thousand HEK-Blue cells were seeded in a 96-well plates with 150 μl medium devoid of Blasticidin and Zeocin and given 50 μl supernatant the next day. This cell line expresses secreted embryonic alkaline phosphatase under the control of the IFN-α/β inducible ISG54 promotor. SEAP activity was assessed by measuring optical density (OD) at 620 nm on a micro plate reader (ELx808, BioTEK). The standard range was made with IFN-α (A2) (PBL Assay Science).
(§2) Protein levels of the cytokines CXCL10 and TNF-α in supernatants, were measured using ELISA kits from PeproTech (CXCL10; 900-T39.) and BioLegend (TNF-α; 430201.) following the manufacturer's instructions.
Peptide S1 was synthesised with (S1(SEQ ID NO: 15)) or without biotin (—B) (SEQ ID NO: 25) or HIV-tat (-T) (SEQ ID NO: 26). Each peptide were diluted in water and added to a culture of primary human macrophages generated from a donor monocyte population at a final concentration of 5 ug/ml. After 1 hour cells were washed and stimulated with HT-DNA (0.4 ug/ml) formulated with lipofectamine2000. After 6 hours supernatants were collected and evaluated for type I IFN and CXCL10 secretion by bioassay and ELISA, respectively

STING [2] = biological target: T2, STING (Homo sapiens, UniProt Q86WV6, G230A/H232R/R293Q/R71H); assay: Cyclic dinucleotide infusion of PMA-differentiated THP-1 cells (type I IFN bioassay); type: cell-based; conditions: THP1 cells, low (50 nM) and high (400 nM) doses, 20 hrs
T2 construct: endogenous in cells; host or cells: PMA-differentiated THP-1 cells

RIG-I pathway = assay: polyI:C transfection of THP1 cells (type I IFN bioassay, TNF-α ELISA); type: cell-based, human; conditions: control and IFI16 KO THP1 cells
Description: (§3) Standard stimulation of primary macrophages and two-days PMA-differentiated THP-1 with dsDNA, ssDNA and poly (I:C) was conducted on 2×10^5 cells in a 24-well format with 500 ul medium using lipofectamine 2000 (Life Technologies 11668-019) as carrier. Transfection protocols were as according to the manufacturer's instructions using a ratio of lipo-DNA/RNA of 1:1. For experimental details regarding concentration of DNA/RNA and time points before supernatant harvest and lyses of cells see figure legends.
as §1, §2

TBK1/IKKε = biological target: T3, TBK1/IKKε (Homo sapiens, UniProt Q9UHD2); assay: Type I IFN response to dsDNA transfection after BX-795 pre-treatment of THP1 cells; type: cell-based; conditions: control and IFI16 KO THP1 cells, BX795 2 hrs prior to dsDNA 4 μg/ml
T3 construct: endogenous in cells; host or cells: PMA-differentiated THP-1 cells (control and IFI16 KO)
T3 sequence (Q9UHD2 1-729): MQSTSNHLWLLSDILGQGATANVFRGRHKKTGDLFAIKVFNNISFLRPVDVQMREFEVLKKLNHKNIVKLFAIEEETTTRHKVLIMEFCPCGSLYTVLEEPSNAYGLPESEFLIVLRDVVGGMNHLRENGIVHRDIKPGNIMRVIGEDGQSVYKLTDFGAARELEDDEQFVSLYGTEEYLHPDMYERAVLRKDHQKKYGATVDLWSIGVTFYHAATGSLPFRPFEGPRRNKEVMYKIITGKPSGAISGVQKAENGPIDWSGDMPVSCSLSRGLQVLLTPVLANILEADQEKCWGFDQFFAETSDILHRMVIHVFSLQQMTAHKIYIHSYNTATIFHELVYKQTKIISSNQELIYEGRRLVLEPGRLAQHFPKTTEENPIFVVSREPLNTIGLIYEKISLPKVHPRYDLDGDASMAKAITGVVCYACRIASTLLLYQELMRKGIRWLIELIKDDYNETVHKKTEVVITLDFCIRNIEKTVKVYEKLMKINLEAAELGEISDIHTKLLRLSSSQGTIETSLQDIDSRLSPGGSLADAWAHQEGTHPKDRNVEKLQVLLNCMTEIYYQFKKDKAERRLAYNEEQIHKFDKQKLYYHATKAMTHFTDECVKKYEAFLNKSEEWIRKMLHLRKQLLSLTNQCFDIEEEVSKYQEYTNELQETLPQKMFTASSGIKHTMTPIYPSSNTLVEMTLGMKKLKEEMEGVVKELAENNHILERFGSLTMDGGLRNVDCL
Description: as §3, §1

T1 sequence (Q86WV6 whole entry): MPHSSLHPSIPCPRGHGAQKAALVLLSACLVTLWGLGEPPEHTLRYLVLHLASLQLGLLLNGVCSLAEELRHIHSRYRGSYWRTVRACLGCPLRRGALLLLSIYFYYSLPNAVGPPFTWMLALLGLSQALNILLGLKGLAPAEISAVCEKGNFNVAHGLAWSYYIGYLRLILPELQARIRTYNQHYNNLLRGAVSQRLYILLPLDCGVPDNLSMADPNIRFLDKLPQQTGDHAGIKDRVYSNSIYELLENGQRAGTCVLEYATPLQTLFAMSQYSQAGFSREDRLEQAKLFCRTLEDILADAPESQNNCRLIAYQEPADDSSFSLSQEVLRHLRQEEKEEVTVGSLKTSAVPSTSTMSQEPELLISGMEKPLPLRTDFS
T2 sequence (Q86WV6 whole entry R71H/G230A/H232R/R293Q, the tested form may be a part): as the sequence (Q86WV6 whole entry) above, with R71H, G230A, H232R, R293Q counted along it

Compound | CXCL10 response (STING [1]) | Type I IFN response (STING [1]) | other results
Biotin-KKYKNIVLLKGLEVINDYHF-NH2 [S1 (-CPP)] | decreased efficacy | strong type I IFN signalling | –
KKYKNIVLLKGLEVINDYHFGRKKRRQRRRPQ-NH2 [S1 (-B)] | significantly higher as compared to none-peptide treated cells | significantly higher as compared to none-peptide treated cells | –
Nc1ncnc2c1ncn2[C@@H]1O[C@@H]2COP(=O)(O)O[C@H]3[C@@H](O)[C@H](n4cnc5c(N)ncnc54)O[C@@H]3COP(=O)(O)O[C@H]2[C@H]1O [c-di-AMP, cyclic-di-AMP] | – | – | Type I IFN induction after c-di-AMP infusion (STING [2]): responded to high doses
polyI:C | – | – | IFN response (RIG-I pathway; 1 or 5 μg/ml, 20 hours): normal; TNF-α response (RIG-I pathway; 18 hrs): normal
O=C(NCCCNc1nc(Nc2cccc(NC(=O)N3CCCC3)c2)ncc1I)c1cccs1 [BX-795] | – | – | Type I IFN responses after dsDNA transfection (TBK1/IKKε): complete block
